Data: US10766869B2, “Triazoles for the treatment of demyelinating dieases” (Vertex Pharmaceuticals Incorporated, priority 2015, dated 2020)

Tested on: primary rat mixed cortical cells
Test: In vitro myelination assay (MBP positive myelin strands, fold myelin pixels above background)
Format: cell-based
Conditions: Rattus norvegicus, relative to baseline of no added compound; for fold induction at 1 µM: 1.0 μM compound, read-out: Fold myelin pixels above background, 1.0 μM; for fold induction at 10 µM: 10.0 μM compound, read-out: Fold myelin pixels above background, 10.0 μM
Summary of the method: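 P1 rat mixed cortical cultures (neurons, OPCs, oligodendrocytes, astrocytes, microglia) grown 14 days at 37 °C with compound, half-medium refreshed with compound on days 6 and 10. Fixed cells stained for MBP; MBP-positive myelin strand pixels per well quantified by automated imaging, reported as fold over no-compound baseline at 1.0 and 10.0 μM.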

Row | SMILES | fold induction at 1 µM | fold induction at 10 µM
1 | CCc1cc(Nc2ncn(-c3cccc(F)c3F)n2)cc(N2CCN(C3COC3)CC2)c1 [Compound 276, 1-(2,3-difluorophenyl)-N-[3-ethyl-5-[4-(oxetan-3-yl)piperazin-1-yl]phenyl]-1,2,4-triazol-3-amine] | ≤ 1 | 1 to 10
2 | COc1nccc(-n2cnc(Nc3cc(C4CC4)cc(N4CCN(C5COC5)CC4)c3)n2)n1 [Compound 277, N-[3-cyclopropyl-5-[4-(oxetan-3-yl)piperazin-1-yl]phenyl]-1-(2-methoxypyrimidin-4-yl)-1,2,4-triazol-3-amine] | 10 to 100 | 100 to 1000
3 | Cc1cc(Nc2ncn(-c3ccc(F)c(F)c3)n2)cc(NC2CCN(C3COC3)CC2)c1 [Compound 278, N3-[1-(3,4-difluorophenyl)-1,2,4-triazol-3-yl]-5-methyl-N1-[1-(oxetan-3-yl)-4-piperidyl]benzene-1,3-diamine] | 100 to 1000 | 1 to 10
4 | Cc1cc(Nc2ncn(-c3cc(F)cc(F)c3)n2)cc(N2CCC3(CC2)COC3)c1 [Compound 279, 1-(3,5-difluorophenyl)-N-[3-methyl-5-(2-oxa-7-azaspiro[3.5]nonan-7-yl)phenyl]-1,2,4-triazol-3-amine] | 100 to 1000 | 100 to 1000
5 | CC(=O)N1CCCN(c2cc(C)cc(Nc3ncn(-c4ccccc4)n3)c2)CC1 [Compound 280, 1-[4-[3-methyl-5-[(1-phenyl-1,2,4-triazol-3-yl)amino]phenyl]-1,4-diazepan-1-yl]ethanone] | 1000 to 10000 | 10 to 100
6 | Cc1cc(Nc2ncn(-c3cccc(C#N)c3)n2)cc(N2CCCC2)c1 [Compound 281, 3-[3-(3-methyl-5-pyrrolidin-1-yl-anilino)-1,2,4-triazol-1-yl]benzonitrile] | 1 to 10 | ≤ 1
7 | NC1CN(c2cc(F)cc(Nc3ncn(-c4ccc(F)cc4F)n3)c2)C1 [Compound 283, N-[3-(3-aminoazetidin-1-yl)-5-fluoro-phenyl]-1-(2,4-difluorophenyl)-1,2,4-triazol-3-amine] | ≤ 1 | ≤ 1
8 | Cc1cc(Nc2ncn(-c3cc(F)cc(F)c3)n2)cc(N2CCC(N3CCOCC3)C2)c1 (stereo not shown) [Compound 284, 1-(3,5-difluorophenyl)-N-[3-methyl-5-(3-morpholinopyrrolidin-1-yl)phenyl]-1,2,4-triazol-3-amine] | 1 to 10 | 1 to 10
9 | CC(C)Oc1cc(F)cc(-n2cnc(Nc3cc(C4CC4)cc(N4CCN(C5COC5)CC4)c3)n2)c1 [Compound 285, N-[3-cyclopropyl-5-[4-(oxetan-3-yl)piperazin-1-yl]phenyl]-1-(3-fluoro-5-isopropoxy-phenyl)-1,2,4-triazol-3-amine] | 1 to 10 | 10 to 100
10 | CCOc1nccc(-n2cnc(Nc3cc(C4CC4)cc(N4CCN(C5COC5)CC4)c3)n2)n1 [Compound 286, N-[3-cyclopropyl-5-[4-(oxetan-3-yl)piperazin-1-yl]phenyl]-1-(2-ethoxypyrimidin-4-yl)-1,2,4-triazol-3-amine] | 100 to 1000 | 100 to 1000
11 | Cc1cc(Nc2ncn(-c3cccc(C(F)(F)F)c3)n2)cc(N2CCN(C3COC3)CC2)c1 [Compound 287, N-[3-methyl-5-[4-(oxetan-3-yl)piperazin-1-yl]phenyl]-1-[3-(trifluoromethyl)phenyl]-1,2,4-triazol-3-amine] | 100 to 1000 | 100 to 1000
12 | CC(C)(C)c1cc(Nc2ncn(-c3cnccn3)n2)cc(N2CCN(C3COC3)CC2)c1 [Compound 288, N-[3-tert-butyl-5-[4-(oxetan-3-yl)piperazin-1-yl]phenyl]-1-pyrazin-2-yl-1,2,4-triazol-3-amine] | 1000 to 10000 | 1000 to 10000
13 | Cc1cc(Nc2ncn(-c3ccccc3)n2)cc(N2CCN(C3CCOCC3)CC2)c1 [Compound 289, N-[3-methyl-5-(4-tetrahydropyran-4-ylpiperazin-1-yl)phenyl]-1-phenyl-1,2,4-triazol-3-amine] | 1000 to 10000 | 1 to 10
14 | Cc1cc(Nc2ncn(-c3ccccc3)n2)cc(N2CCN(C3CCC3)CC2)c1 [Compound 290, N-[3-(4-cyclobutylpiperazin-1-yl)-5-methyl-phenyl]-1-phenyl-1,2,4-triazol-3-amine] | 1000 to 10000 | 1000 to 10000
15 | Cc1cc(Nc2ncn(-c3ncncc3F)n2)cc(N2CCN(C3COC3)CC2)c1 [Compound 291, 1-(5-fluoropyrimidin-4-yl)-N-[3-methyl-5-[4-(oxetan-3-yl)piperazin-1-yl]phenyl]-1,2,4-triazol-3-amine] | ≤ 1 | 1 to 10
16 | Cc1cc(Nc2ncn(-c3ccccc3)n2)cc(N2C[C@@H]3C[C@H]2CN3C2CC2)c1 [Compound 292, N-[3-[(1S,4S)-2-cyclopropyl-2,5-diazabicyclo[2.2.1]heptan-5-yl]-5-methyl-phenyl]-1-phenyl-1,2,4-triazol-3-amine] | 100 to 1000 | 10 to 100

Row | SMILES | fold induction at 1 µM | fold induction at 10 µM
17 | COC1CCCN(c2cc(C)cc(Nc3ncn(-c4cc(F)cc(F)c4)n3)c2)C1 (stereo not shown) [Compound 293, 1-(3,5-difluorophenyl)-N-[3-(3-methoxy-1-piperidyl)-5-methyl-phenyl]-1,2,4-triazol-3-amine] | 10 to 100 | 10 to 100
18 | Cc1cc(Nc2ncn(-c3ccccc3)n2)cc(C2CCN(C3(C)COC3)CC2)c1 [Compound 294, N-[3-methyl-5-[1-(3-methyloxetan-3-yl)-4-piperidyl]phenyl]-1-phenyl-1,2,4-triazol-3-amine] | 1000 to 10000 | 1000 to 10000
19 | Cc1cc(Nc2ncn(-c3cc(F)cc(F)c3)n2)cc(C2CNC(=O)O2)c1 (stereo not shown) [Compound 295, 5-[3-[[1-(3,5-difluorophenyl)-1,2,4-triazol-3-yl]amino]-5-methyl-phenyl]oxazolidin-2-one] | 10 to 100 | 1 to 10
20 | F[C@@H]1CCN(c2cc(Nc3ncn(-c4ccccc4)n3)cc(C3CC3)n2)C1 [Compound 296, 2-cyclopropyl-6-[(3R)-3-fluoropyrrolidin-1-yl]-N-(1-phenyl-1,2,4-triazol-3-yl)pyridin-4-amine] | 100 to 1000 | 10 to 100
21 | Cc1cc(Nc2ncn(-c3cccnc3)n2)cc(N2CCN(C)CC2)c1 [Compound 297, N-[3-methyl-5-(4-methylpiperazin-1-yl)phenyl]-1-(3-pyridyl)-1,2,4-triazol-3-amine] | 10 to 100 | 10 to 100
22 | Fc1cc(F)cc(-n2cnc(Nc3cc(C4=CCOC4)cc(N4CCOCC4)c3)n2)c1 [Compound 298, 1-(3,5-difluorophenyl)-N-[3-(2,5-dihydrofuran-3-yl)-5-morpholino-phenyl]-1,2,4-triazol-3-amine] | 1000 to 10000 | 100 to 1000
23 | COCC1CCN(c2cc(C)cc(Nc3ncn(-c4ccc(F)c(F)c4)n3)c2)CC1 [Compound 299, 1-(3,4-difluorophenyl)-N-[3-[4-(methoxymethyl)-1-piperidyl]-5-methyl-phenyl]-1,2,4-triazol-3-amine] | 100 to 1000 | 10 to 100
24 | CC(=O)N1CCCC(c2cc(C)cc(Nc3ncn(-c4cnccn4)n3)c2)C1 (stereo not shown) [Compound 300, 1-[3-[3-methyl-5-[(1-pyrazin-2-yl-1,2,4-triazol-3-yl)amino]phenyl]-1-piperidyl]ethanone] | 100 to 1000 | ≤ 1
25 | Cc1cc(Nc2ncn(-c3ccc(F)c(F)c3)n2)cc(C2CN(C3COC3)C2)c1 [Compound 301, 1-(3,4-difluorophenyl)-N-[3-methyl-5-[1-(oxetan-3-yl)azetidin-3-yl]phenyl]-1,2,4-triazol-3-amine] | 1000 to 10000 | 100 to 1000
26 | Cc1cc(-n2cnc(Nc3cc(C4CC4)cc(N4CCN(C5COC5)CC4)c3)n2)ncn1 [Compound 302, N-[3-cyclopropyl-5-[4-(oxetan-3-yl)piperazin-1-yl]phenyl]-1-(6-methylpyrimidin-4-yl)-1,2,4-triazol-3-amine] | 1000 to 10000 | 1000 to 10000
27 | CCc1cc(Nc2ncn(-c3ccc(OC(F)(F)F)cc3)n2)cc(N2CCN(C3COC3)CC2)c1 [Compound 303, N-[3-ethyl-5-[4-(oxetan-3-yl)piperazin-1-yl]phenyl]-1-[4-(trifluoromethoxy)phenyl]-1,2,4-triazol-3-amine] | 1 to 10 | 1 to 10
28 | Cc1cc(Nc2ncn(-c3cc(F)cc(F)c3)n2)cc(O[C@H]2CCN(C3COC3)C2)c1 [Compound 304, 1-(3,5-difluorophenyl)-N-[3-methyl-5-[(3S)-1-(oxetan-3-yl)pyrrolidin-3-yl]oxy-phenyl]-1,2,4-triazol-3-amine] | 100 to 1000 | ≤ 1
29 | c1ccc(-n2cnc(Nc3cc(C4CC4)cc(N4CCOCC4)c3)n2)cc1 [Compound 305, N-(3-cyclopropyl-5-morpholino-phenyl)-1-phenyl-1,2,4-triazol-3-amine] | 100 to 1000 | ≤ 1
30 | Cc1cc(Nc2ncn(-c3ccccc3)n2)cc(N2CC(C)OC(C)C2)c1 (stereo not shown) [Compound 306, N-[3-(2,6-dimethylmorpholin-4-yl)-5-methyl-phenyl]-1-phenyl-1,2,4-triazol-3-amine] | ≤ 1 | ≤ 1
31 | Cc1cc(N2CCOCC2)cc(Nc2ncn(-c3ccccn3)n2)c1F [Compound 307, N-(2-fluoro-3-methyl-5-morpholino-phenyl)-1-(2-pyridyl)-1,2,4-triazol-3-amine] | 1 to 10 | 10 to 100
32 | Cc1cc(Nc2ncn(-c3ccccc3)n2)cc(C2CCNCC2)c1 [Compound 308, N-[3-methyl-5-(4-piperidyl)phenyl]-1-phenyl-1,2,4-triazol-3-amine] | 1000 to 10000 | ≤ 1
